{"source": "paper PMC6540285", "about": "“Evaluation of Protein Kinase Inhibitors with PLK4 Cross-Over Potential in a Pre-Clinical Model of Cancer” (International Journal of Molecular Sciences, 2019)", "key": {"RPS6KA4 (MSK2)": {"biological_target": "RPS6KA4 (MSK2) (Homo sapiens, UniProt O75676)", "experiment": "SelectScreen kinase profiling, ZLYTE", "type": "biochemical"}, "RPS6KA1 (RSK1)": {"biological_target": "RPS6KA1 (RSK1) (Homo sapiens, UniProt Q15418)", "experiment": "SelectScreen kinase profiling, ZLYTE", "type": "biochemical"}, "CHEK1 (CHK1)": {"biological_target": "CHEK1 (CHK1) (Homo sapiens, UniProt O14757)", "sequence (O14757 whole entry)": "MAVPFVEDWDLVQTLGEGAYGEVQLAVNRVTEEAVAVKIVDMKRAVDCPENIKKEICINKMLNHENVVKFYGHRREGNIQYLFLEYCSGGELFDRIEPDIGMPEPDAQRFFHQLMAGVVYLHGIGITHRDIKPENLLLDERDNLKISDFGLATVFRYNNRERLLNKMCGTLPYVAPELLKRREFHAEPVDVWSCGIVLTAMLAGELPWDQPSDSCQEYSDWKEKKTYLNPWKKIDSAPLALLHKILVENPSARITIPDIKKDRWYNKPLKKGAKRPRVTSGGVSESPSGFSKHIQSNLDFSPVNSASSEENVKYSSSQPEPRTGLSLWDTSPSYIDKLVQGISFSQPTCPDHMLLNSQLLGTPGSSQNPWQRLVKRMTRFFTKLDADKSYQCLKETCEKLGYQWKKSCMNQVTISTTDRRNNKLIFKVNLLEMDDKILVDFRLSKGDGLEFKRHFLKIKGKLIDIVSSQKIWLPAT", "experiment": "SelectScreen kinase profiling, ZLYTE", "type": "biochemical"}, "SNF1LK2": {"biological_target": "SNF1LK2 (Homo sapiens, UniProt Q9H0K1)", "experiment": "SelectScreen kinase profiling, ZLYTE", "type": "biochemical", "conditions": "SNF1LK2, 10 µM"}, "MET (cMet) Y1235D": {"biological_target": "MET (cMet) Y1235D (Homo sapiens, UniProt P08581, Y1235D)", "experiment": "SelectScreen kinase profiling, ZLYTE", "type": "biochemical"}, "EPHB3": {"biological_target": "EPHB3 (Homo sapiens, UniProt P54753)", "experiment": "SelectScreen kinase profiling, ZLYTE", "type": "biochemical", "conditions": "EPHB3, 10 µM"}, "PRKCG (PKC gamma)": {"biological_target": "PRKCG (PKC gamma) (Homo sapiens, UniProt P05129)", "experiment": "SelectScreen kinase profiling, ZLYTE", "type": "biochemical"}, "ZAP70": {"biological_target": "ZAP70 (Homo sapiens, UniProt P43403)", "experiment": "SelectScreen kinase profiling, ZLYTE", "type": "biochemical", "conditions": "ZAP70, 10 µM", "description": "(§1) Kinase Technology % Inhibition Avg Kinase Technology % Inhibition Avg […]\nTESK1 LanthaScreen 37 ZAP70 ZLYTE 24\ncleavage (Thermo Fisher Scientific, USA)"}, "ADRBK2 (GRK3)": {"biological_target": "ADRBK2 (GRK3) (Homo sapiens, UniProt P35626)", "experiment": "SelectScreen kinase profiling, ZLYTE", "type": "biochemical"}, "[1]": {"biological_target": "CSNK1E (CK1 epsilon) R178C (Homo sapiens, UniProt P49674, R178C)", "sequence (P49674 whole entry R178C)": "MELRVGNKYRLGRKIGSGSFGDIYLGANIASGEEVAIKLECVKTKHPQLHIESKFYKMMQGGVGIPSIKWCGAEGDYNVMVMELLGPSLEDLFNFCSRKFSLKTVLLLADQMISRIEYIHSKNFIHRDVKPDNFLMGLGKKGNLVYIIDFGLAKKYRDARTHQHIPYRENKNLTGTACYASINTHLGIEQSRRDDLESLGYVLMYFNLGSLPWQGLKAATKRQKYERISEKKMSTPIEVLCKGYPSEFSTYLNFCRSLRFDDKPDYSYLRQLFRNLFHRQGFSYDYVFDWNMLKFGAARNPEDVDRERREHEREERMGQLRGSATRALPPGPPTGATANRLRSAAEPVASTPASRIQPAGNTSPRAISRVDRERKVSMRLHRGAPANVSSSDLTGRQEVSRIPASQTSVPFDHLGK", "experiment": "SelectScreen kinase profiling, ZLYTE", "type": "biochemical"}, "STK22B (TSSK2)": {"biological_target": "STK22B (TSSK2) (Homo sapiens, UniProt Q96PF2)", "experiment": "SelectScreen kinase profiling, ZLYTE", "type": "biochemical"}, "MET (cMet)": {"biological_target": "MET (cMet) (Homo sapiens, UniProt P08581)", "experiment": "SelectScreen kinase profiling, ZLYTE", "type": "biochemical"}, "ABL1 F317I": {"biological_target": "ABL1 F317I (Homo sapiens, UniProt P00519, F317I)", "experiment": "SelectScreen kinase profiling, ZLYTE", "type": "biochemical"}, "ABL1 G250E": {"biological_target": "ABL1 G250E (Homo sapiens, UniProt P00519, G250E)", "experiment": "SelectScreen kinase profiling, ZLYTE", "type": "biochemical"}, "STK32B (YANK2)": {"biological_target": "STK32B (YANK2) (Homo sapiens, UniProt Q9NY57)", "experiment": "SelectScreen kinase profiling, LanthaScreen binding"}, "MELK": {"biological_target": "MELK (Homo sapiens, UniProt Q14680)", "experiment": "SelectScreen kinase profiling, ZLYTE", "type": "biochemical"}, "PRKCB1 (PKC beta I)": {"biological_target": "PRKCB1 (PKC beta I) (Homo sapiens, UniProt P05771)", "experiment": "SelectScreen kinase profiling, ZLYTE", "type": "biochemical"}, "PKN2 (PRK2)": {"biological_target": "PKN2 (PRK2) (Homo sapiens, UniProt Q16513)", "experiment": "SelectScreen kinase profiling, LanthaScreen binding"}, "PRKACB (PRKAC beta)": {"biological_target": "PRKACB (PRKAC beta) (Homo sapiens, UniProt P22694)", "experiment": "SelectScreen kinase profiling, LanthaScreen binding"}, "EPHB2": {"biological_target": "EPHB2 (Homo sapiens, UniProt P29323)", "experiment": "SelectScreen kinase profiling, ZLYTE", "type": "biochemical", "conditions": "EPHB2, 10 µM"}, "GSK3B (GSK3 beta)": {"biological_target": "GSK3B (GSK3 beta) (Homo sapiens, UniProt P49841)", "experiment": "SelectScreen kinase profiling, ZLYTE", "type": "biochemical"}, "ERN1": {"biological_target": "ERN1 (Homo sapiens, UniProt O75460)", "sequence (O75460 19-977)": "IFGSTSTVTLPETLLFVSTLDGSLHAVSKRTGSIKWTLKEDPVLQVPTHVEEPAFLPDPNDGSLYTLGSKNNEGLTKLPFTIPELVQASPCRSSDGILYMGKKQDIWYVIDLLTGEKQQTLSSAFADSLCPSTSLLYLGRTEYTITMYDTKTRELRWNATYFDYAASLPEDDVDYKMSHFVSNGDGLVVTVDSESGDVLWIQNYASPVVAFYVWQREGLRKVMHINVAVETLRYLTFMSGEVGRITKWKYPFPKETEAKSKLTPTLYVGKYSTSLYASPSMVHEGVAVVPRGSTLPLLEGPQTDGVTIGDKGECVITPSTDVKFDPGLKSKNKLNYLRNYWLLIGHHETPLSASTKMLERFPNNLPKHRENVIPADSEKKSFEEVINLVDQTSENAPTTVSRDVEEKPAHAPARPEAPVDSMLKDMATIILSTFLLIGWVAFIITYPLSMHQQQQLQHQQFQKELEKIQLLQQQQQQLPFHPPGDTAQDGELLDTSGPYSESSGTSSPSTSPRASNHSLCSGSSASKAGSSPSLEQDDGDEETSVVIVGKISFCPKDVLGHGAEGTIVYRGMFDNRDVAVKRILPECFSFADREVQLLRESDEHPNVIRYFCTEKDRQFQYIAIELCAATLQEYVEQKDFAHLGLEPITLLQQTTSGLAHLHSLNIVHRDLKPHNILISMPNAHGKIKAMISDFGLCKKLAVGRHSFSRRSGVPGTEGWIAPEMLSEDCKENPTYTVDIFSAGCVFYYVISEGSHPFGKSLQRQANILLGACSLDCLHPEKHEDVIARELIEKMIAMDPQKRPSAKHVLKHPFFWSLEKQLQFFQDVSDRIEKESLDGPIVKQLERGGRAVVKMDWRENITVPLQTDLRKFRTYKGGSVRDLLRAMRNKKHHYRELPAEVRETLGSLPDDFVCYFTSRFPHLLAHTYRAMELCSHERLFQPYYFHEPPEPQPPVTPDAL", "experiment": "SelectScreen kinase profiling, LanthaScreen binding", "conditions": "ERN1, 10 µM"}, "BRSK2": {"biological_target": "BRSK2 (Homo sapiens, UniProt Q8IWQ3)", "experiment": "SelectScreen kinase profiling, LanthaScreen binding", "conditions": "BRSK2, 10 µM"}, "CLK1": {"biological_target": "CLK1 (Homo sapiens, UniProt P49759)", "sequence (P49759 whole entry)": "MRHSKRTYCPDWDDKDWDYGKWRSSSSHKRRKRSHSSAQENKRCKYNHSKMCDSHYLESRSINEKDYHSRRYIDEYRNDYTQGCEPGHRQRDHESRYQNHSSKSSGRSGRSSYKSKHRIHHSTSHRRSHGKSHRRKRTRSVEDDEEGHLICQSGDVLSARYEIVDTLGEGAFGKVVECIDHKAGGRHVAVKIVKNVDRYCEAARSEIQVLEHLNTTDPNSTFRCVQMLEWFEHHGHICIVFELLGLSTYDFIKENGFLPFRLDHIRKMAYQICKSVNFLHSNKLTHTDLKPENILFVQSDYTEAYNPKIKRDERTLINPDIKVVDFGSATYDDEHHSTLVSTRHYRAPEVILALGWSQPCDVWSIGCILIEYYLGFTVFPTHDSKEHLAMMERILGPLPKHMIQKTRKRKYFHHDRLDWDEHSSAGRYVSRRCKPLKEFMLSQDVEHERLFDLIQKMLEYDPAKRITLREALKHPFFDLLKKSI", "experiment": "SelectScreen kinase profiling, ZLYTE", "type": "biochemical", "conditions": "CLK1, 10 µM"}, "PHKG2": {"biological_target": "PHKG2 (Homo sapiens, UniProt P15735)", "sequence (P15735 whole entry)": "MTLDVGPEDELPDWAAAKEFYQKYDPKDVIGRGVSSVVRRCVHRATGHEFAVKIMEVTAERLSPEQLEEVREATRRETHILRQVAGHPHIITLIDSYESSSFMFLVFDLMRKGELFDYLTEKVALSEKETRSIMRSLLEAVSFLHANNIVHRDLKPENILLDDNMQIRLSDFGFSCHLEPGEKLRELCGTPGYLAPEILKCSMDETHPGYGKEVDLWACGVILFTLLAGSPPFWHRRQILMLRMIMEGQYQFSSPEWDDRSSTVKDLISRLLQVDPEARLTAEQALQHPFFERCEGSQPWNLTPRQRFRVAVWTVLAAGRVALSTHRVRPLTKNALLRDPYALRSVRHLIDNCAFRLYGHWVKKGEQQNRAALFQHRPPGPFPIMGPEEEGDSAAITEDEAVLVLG", "experiment": "SelectScreen kinase profiling, ZLYTE", "type": "biochemical", "conditions": "PHKG2, 10 µM"}, "GSG2 (Haspin)": {"biological_target": "GSG2 (Haspin) (Homo sapiens, UniProt Q8TF76)", "experiment": "SelectScreen kinase profiling, Adapta", "type": "biochemical"}, "SYK": {"biological_target": "SYK (Homo sapiens, UniProt P43405)", "experiment": "SelectScreen kinase profiling, ZLYTE", "type": "biochemical", "description": "as §1"}, "TEK (TIE2) Y897S": {"biological_target": "TEK (TIE2) Y897S (Homo sapiens, UniProt Q02763, Y897S)", "experiment": "SelectScreen kinase profiling, ZLYTE", "type": "biochemical", "description": "as §1"}, "TBK1": {"biological_target": "TBK1 (Homo sapiens, UniProt Q9UHD2)", "experiment": "SelectScreen kinase profiling, ZLYTE", "type": "biochemical", "conditions": "TBK1, 10 µM", "description": "as §1"}, "TAOK2 (TAO1)": {"biological_target": "TAOK2 (TAO1) (Homo sapiens, UniProt Q9UL54)", "sequence (Q9UL54 whole entry)": "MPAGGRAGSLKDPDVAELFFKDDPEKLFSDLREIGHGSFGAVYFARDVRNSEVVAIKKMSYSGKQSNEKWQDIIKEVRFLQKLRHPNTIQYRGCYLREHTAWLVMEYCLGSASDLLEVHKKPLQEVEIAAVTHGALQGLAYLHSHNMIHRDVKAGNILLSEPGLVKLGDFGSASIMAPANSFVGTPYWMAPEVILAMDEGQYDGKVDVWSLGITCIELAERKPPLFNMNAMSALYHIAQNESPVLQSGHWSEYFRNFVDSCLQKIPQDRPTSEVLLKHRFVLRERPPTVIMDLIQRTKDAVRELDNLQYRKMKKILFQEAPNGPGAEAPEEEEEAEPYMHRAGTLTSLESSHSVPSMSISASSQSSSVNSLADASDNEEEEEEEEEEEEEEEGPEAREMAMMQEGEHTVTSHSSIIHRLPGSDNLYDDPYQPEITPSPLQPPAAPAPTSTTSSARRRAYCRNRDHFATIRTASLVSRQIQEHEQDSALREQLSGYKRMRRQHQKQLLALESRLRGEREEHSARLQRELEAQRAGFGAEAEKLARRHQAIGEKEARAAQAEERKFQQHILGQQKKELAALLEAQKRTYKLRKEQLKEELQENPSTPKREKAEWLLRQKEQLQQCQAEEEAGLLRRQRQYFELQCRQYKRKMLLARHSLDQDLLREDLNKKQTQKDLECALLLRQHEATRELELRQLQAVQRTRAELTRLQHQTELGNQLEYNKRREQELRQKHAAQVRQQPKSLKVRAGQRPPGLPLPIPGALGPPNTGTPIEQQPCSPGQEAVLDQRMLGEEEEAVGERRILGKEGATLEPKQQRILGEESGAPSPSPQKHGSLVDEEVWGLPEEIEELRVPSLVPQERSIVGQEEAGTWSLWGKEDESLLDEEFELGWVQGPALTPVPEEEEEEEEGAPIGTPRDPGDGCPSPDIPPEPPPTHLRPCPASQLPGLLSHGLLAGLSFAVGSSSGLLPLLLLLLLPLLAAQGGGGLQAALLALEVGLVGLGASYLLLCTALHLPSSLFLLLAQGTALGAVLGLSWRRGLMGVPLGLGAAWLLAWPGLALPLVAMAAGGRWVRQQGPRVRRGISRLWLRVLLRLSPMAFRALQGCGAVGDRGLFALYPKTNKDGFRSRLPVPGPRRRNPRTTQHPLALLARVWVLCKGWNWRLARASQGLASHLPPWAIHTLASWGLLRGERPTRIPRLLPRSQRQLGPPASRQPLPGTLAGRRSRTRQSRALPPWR", "experiment": "SelectScreen kinase profiling, ZLYTE", "type": "biochemical", "description": "as §1"}, "TEK (Tie2)": {"biological_target": "TEK (Tie2) (Homo sapiens, UniProt Q02763)", "experiment": "SelectScreen kinase profiling, ZLYTE", "type": "biochemical", "description": "as §1"}, "STK3 (MST2)": {"biological_target": "STK3 (MST2) (Homo sapiens, UniProt Q13188)", "experiment": "SelectScreen kinase profiling, ZLYTE", "type": "biochemical", "description": "as §1"}, "STK4 (MST1)": {"biological_target": "STK4 (MST1) (Homo sapiens, UniProt Q13043)", "experiment": "SelectScreen kinase profiling, ZLYTE", "type": "biochemical", "description": "as §1"}, "STK25 (YSK1)": {"biological_target": "STK25 (YSK1) (Homo sapiens, UniProt O00506)", "experiment": "SelectScreen kinase profiling, ZLYTE", "type": "biochemical", "description": "as §1"}, "STK24 (MST3)": {"biological_target": "STK24 (MST3) (Homo sapiens, UniProt Q9Y6E0)", "experiment": "SelectScreen kinase profiling, ZLYTE", "type": "biochemical", "description": "as §1"}, "TYRO3 (RSE)": {"biological_target": "TYRO3 (RSE) (Homo sapiens, UniProt Q06418)", "sequence (Q06418 41-890)": "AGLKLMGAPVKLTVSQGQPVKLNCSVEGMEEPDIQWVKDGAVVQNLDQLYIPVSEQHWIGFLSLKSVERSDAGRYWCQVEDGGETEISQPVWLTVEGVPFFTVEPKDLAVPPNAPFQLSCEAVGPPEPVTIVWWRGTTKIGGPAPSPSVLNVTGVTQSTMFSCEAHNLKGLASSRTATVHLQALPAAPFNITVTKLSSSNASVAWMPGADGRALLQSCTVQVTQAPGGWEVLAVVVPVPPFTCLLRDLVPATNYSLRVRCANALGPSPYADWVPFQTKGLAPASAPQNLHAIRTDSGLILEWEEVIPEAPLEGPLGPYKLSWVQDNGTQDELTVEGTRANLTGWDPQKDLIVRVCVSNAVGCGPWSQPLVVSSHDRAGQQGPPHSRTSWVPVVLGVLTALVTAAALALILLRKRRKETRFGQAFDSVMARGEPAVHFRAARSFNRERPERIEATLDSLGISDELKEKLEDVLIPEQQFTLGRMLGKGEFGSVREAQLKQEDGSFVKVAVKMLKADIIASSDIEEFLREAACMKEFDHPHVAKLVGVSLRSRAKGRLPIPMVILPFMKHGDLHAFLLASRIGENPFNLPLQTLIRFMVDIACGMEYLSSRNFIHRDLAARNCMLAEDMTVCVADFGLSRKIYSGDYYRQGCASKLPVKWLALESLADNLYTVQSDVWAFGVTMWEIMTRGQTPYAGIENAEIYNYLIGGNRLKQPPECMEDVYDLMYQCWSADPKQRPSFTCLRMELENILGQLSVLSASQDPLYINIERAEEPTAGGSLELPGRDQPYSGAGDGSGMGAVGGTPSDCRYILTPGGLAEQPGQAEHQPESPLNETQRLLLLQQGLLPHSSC", "experiment": "SelectScreen kinase profiling, ZLYTE", "type": "biochemical", "description": "as §1"}, "TYK2": {"biological_target": "TYK2 (Homo sapiens, UniProt P29597)", "experiment": "SelectScreen kinase profiling, ZLYTE", "type": "biochemical", "conditions": "TYK2, 10 µM", "description": "as §1"}, "TNK1": {"biological_target": "TNK1 (Homo sapiens, UniProt Q13470)", "experiment": "SelectScreen kinase profiling, ZLYTE", "type": "biochemical", "conditions": "TNK1, 10 µM", "description": "as §1"}, "TXK": {"biological_target": "TXK (Homo sapiens, UniProt P42681)", "experiment": "SelectScreen kinase profiling, ZLYTE", "type": "biochemical", "description": "as §1"}}, "data": [{"compound": "O=C(c1ccc(/C=C/c2n[nH]c3ccccc23)cc1)N1CCNCC1", "note": "[KW-2449]", "values": [{"measurement": "inhibition at 10 µM", "setting": "RPS6KA4 (MSK2)", "value": 75, "unit": "%"}, {"measurement": "inhibition at 10 µM", "setting": "RPS6KA1 (RSK1)", "value": 94, "unit": "%"}, {"measurement": "inhibition at 10 µM", "setting": "CHEK1 (CHK1)", "value": 99, "unit": "%"}, {"measurement": "inhibition at 10 µM", "setting": "SNF1LK2", "value": 97, "unit": "%"}, {"measurement": "inhibition at 10 µM", "setting": "MET (cMet) Y1235D", "value": 88, "unit": "%"}, {"measurement": "inhibition at 10 µM", "setting": "EPHB3", "value": 21, "unit": "%"}, {"measurement": "inhibition at 10 µM", "setting": "PRKCG (PKC gamma)", "value": 81, "unit": "%"}, {"measurement": "inhibition at 10 µM", "setting": "ZAP70", "value": 24, "unit": "%"}, {"measurement": "inhibition at 10 µM", "setting": "ADRBK2 (GRK3)", "value": 31, "unit": "%"}, {"measurement": "inhibition at 10 µM", "setting": "[1]", "value": 71, "unit": "%"}, {"measurement": "inhibition at 10 µM", "setting": "STK22B (TSSK2)", "value": 74, "unit": "%"}, {"measurement": "inhibition at 10 µM", "setting": "MET (cMet)", "value": 95, "unit": "%"}, {"measurement": "inhibition at 10 µM", "setting": "ABL1 F317I", "value": 94, "unit": "%"}, {"measurement": "inhibition at 10 µM", "setting": "ABL1 G250E", "value": 100, "unit": "%"}, {"measurement": "inhibition at 10 µM", "setting": "STK32B (YANK2)", "value": 61, "unit": "%"}, {"measurement": "inhibition at 10 µM", "setting": "MELK", "value": 101, "unit": "%"}, {"measurement": "inhibition at 10 µM", "setting": "PRKCB1 (PKC beta I)", "value": 19, "unit": "%"}, {"measurement": "inhibition at 10 µM", "setting": "PKN2 (PRK2)", "value": 65, "unit": "%"}, {"measurement": "inhibition at 10 µM", "setting": "PRKACB (PRKAC beta)", "value": 48, "unit": "%"}, {"measurement": "inhibition at 10 µM", "setting": "EPHB2", "value": 95, "unit": "%"}, {"measurement": "inhibition at 10 µM", "setting": "GSK3B (GSK3 beta)", "value": 66, "unit": "%"}, {"measurement": "inhibition at 10 µM", "setting": "ERN1", "value": 32, "unit": "%"}, {"measurement": "inhibition at 10 µM", "setting": "BRSK2", "value": 7, "unit": "%"}, {"measurement": "inhibition at 10 µM", "setting": "CLK1", "value": 99, "unit": "%"}, {"measurement": "inhibition at 10 µM", "setting": "PHKG2", "value": 99, "unit": "%"}, {"measurement": "inhibition at 10 µM", "setting": "GSG2 (Haspin)", "value": 74, "unit": "%"}, {"measurement": "inhibition at 10 µM", "setting": "SYK", "value": 98, "unit": "%"}, {"measurement": "inhibition at 10 µM", "setting": "TEK (TIE2) Y897S", "value": 80, "unit": "%"}, {"measurement": "inhibition at 10 µM", "setting": "TBK1", "value": 99, "unit": "%"}, {"measurement": "inhibition at 10 µM", "setting": "TAOK2 (TAO1)", "value": 87, "unit": "%"}, {"measurement": "inhibition at 10 µM", "setting": "TEK (Tie2)", "value": 99, "unit": "%"}, {"measurement": "inhibition at 10 µM", "setting": "STK3 (MST2)", "value": 77, "unit": "%"}, {"measurement": "inhibition at 10 µM", "setting": "STK4 (MST1)", "value": 93, "unit": "%"}, {"measurement": "inhibition at 10 µM", "setting": "STK25 (YSK1)", "value": 45, "unit": "%"}, {"measurement": "inhibition at 10 µM", "setting": "STK24 (MST3)", "value": 85, "unit": "%"}, {"measurement": "inhibition at 10 µM", "setting": "TYRO3 (RSE)", "value": 92, "unit": "%"}, {"measurement": "inhibition at 10 µM", "setting": "TYK2", "value": 99, "unit": "%"}, {"measurement": "inhibition at 10 µM", "setting": "TNK1", "value": 94, "unit": "%"}, {"measurement": "inhibition at 10 µM", "setting": "TXK", "value": 94, "unit": "%"}]}]}
